Assay results from the CheMixHub viscosity set.
Where “and” joins values, the source holds several entries; their conditions need not be identical. Identical values can stand only once. ± gives the uncertainty stated by the source. Each block holds one compound with its values, some of them ahead of it.

Experiments:
[1] = xn = mol fraction of the nth substance listed

viscosity (298.15 K, 100 kPa): 0.668 ± 0.027 mPa·s
viscosity (303.15 K, 100 kPa): 0.627 ± 0.025 mPa·s
viscosity (303.15 K, 101 kPa): 0.641 ± 0.007 mPa·s
viscosity (313.15 K, 100 kPa): 0.556 ± 0.023 mPa·s
viscosity (313.15 K, 101 kPa): 0.5652 ± 0.0084 mPa·s
viscosity (313.15 K, 101.33 kPa): 0.535 ± 0.015 mPa·s
viscosity (318.15 K, 100 kPa): 0.526 ± 0.021 mPa·s
viscosity (318.15 K, 101 kPa): 0.512 ± 0.0066 mPa·s
viscosity (318.15 K, 101.33 kPa): 0.505 ± 0.014 mPa·s
viscosity (323.15 K, 100 kPa): 0.498 ± 0.02 mPa·s
viscosity (323.15 K, 101 kPa): 0.5073 ± 0.0082 mPa·s
Compound: CCCCCCCCC
viscosity (298.15 K, 101 kPa): 0.6626 ± 0.0066 mPa·s and 0.6588 ± 0.0084 mPa·s and 0.668 ± 0.013 mPa·s
viscosity (308.15 K, 101 kPa): 0.5808 ± 0.0074 mPa·s and 0.588 ± 0.012 mPa·s and 0.5974 ± 0.0085 mPa·s

viscosity (293.15 K, 102 kPa): 2.57 ± 0.02 mPa·s
viscosity (303.15 K, 102 kPa): 2.08 ± 0.01 mPa·s
viscosity (313.15 K, 102 kPa): 1.73 ± 0.01 mPa·s
viscosity (323.15 K, 102 kPa): 1.46 ± 0.01 mPa·s
Compound: CCCCCCCCc1ccccc1

Compound: CCCOCC(C)O (stereo not given)
viscosity (298.15 K, 100 kPa): 2.451 ± 0.15 mPa·s
viscosity (298.15 K, 101.33 kPa): 2.389 ± 0.036 mPa·s
viscosity (303.15 K, 100 kPa): 2.094 ± 0.15 mPa·s
viscosity (308.15 K, 100 kPa): 1.885 ± 0.15 mPa·s
viscosity (308.15 K, 101.33 kPa): 1.822 ± 0.028 mPa·s
viscosity (318.15 K, 101.33 kPa): 1.416 ± 0.022 mPa·s

viscosity (298.15 K, 101.33 kPa): 0.4024 ± 0.0044 mPa·s
Compound: CCCOCCC

Compound: CCN(CCO)CCO
viscosity (303.15 K, 101 kPa): 48.27 ± 0.7 mPa·s
viscosity (308.15 K, 101 kPa): 36.72 ± 0.57 mPa·s
viscosity (313.15 K, 101 kPa): 28.36 ± 0.43 mPa·s
viscosity (318.15 K, 101 kPa): 22.31 ± 0.33 mPa·s
viscosity (323.15 K, 101 kPa): 17.78 ± 0.28 mPa·s

Compound: CC[NH2+]CC.O=S(=O)([O-])O
viscosity (303.15 K, 101 kPa): 28.9 ± 0.6 mPa·s
viscosity (308.15 K, 101 kPa): 24.6 ± 0.51 mPa·s
viscosity (313.15 K, 101 kPa): 21.9 ± 0.45 mPa·s

Compound: CN(C)P(=O)(N(C)C)N(C)C
viscosity (303.15 K, 101.3 kPa): 2.928 ± 0.077 mPa·s

viscosity (298.16 K, 101 kPa): 4.92 ± 0.042 mPa·s
Compound: CN1CCCCCC1=O

viscosity (293.15 K, 100 kPa): 0.371 ± 0.037 mPa·s
viscosity (298.15 K, 100 kPa): 0.357 ± 0.036 mPa·s
viscosity (303.1 K, 101 kPa): 0.304 ± 0.013 mPa·s
viscosity (303.15 K, 100 kPa): 0.346 ± 0.035 mPa·s
viscosity (308.15 K, 100 kPa): 0.337 ± 0.034 mPa·s
viscosity (313.15 K, 100 kPa): 0.329 ± 0.033 mPa·s
Compound: COCOC

viscosity (293.15 K, 101.33 kPa): 0.8373 ± 0.0067 mPa·s
viscosity (295.15 K, 101 kPa): 0.929 ± 0.04 mPa·s
viscosity (298.15 K, 101 kPa): 0.8777 ± 0.015 mPa·s
viscosity (298.15 K, 101.33 kPa): 0.7813 ± 0.0063 mPa·s
viscosity (298.2 K, 101 kPa): 0.806 ± 0.013 mPa·s
viscosity (300.12 K, 101.33 kPa): 0.847 ± 0.007 mPa·s
viscosity (303 K, 101 kPa): 0.7635 ± 0.0091 mPa·s
viscosity (303.12 K, 101.33 kPa): 0.833 ± 0.007 mPa·s
viscosity (303.24 K, 101 kPa): 0.753 ± 0.012 mPa·s
viscosity (306.99 K, 101.33 kPa): 0.774 ± 0.006 mPa·s
viscosity (308.15 K, 101.33 kPa): 0.6861 ± 0.0055 mPa·s
viscosity (308.26 K, 101 kPa): 0.708 ± 0.011 mPa·s
viscosity (313.34 K, 101 kPa): 0.663 ± 0.01 mPa·s
viscosity (318.15 K, 101.33 kPa): 0.6032 ± 0.0048 mPa·s
viscosity (318.39 K, 101 kPa): 0.627 ± 0.01 mPa·s
Compound: Cc1cccc(C)n1
viscosity (313 K, 101 kPa): 0.6811 ± 0.0081 mPa·s and 0.6687 ± 0.008 mPa·s
viscosity (323 K, 101 kPa): 0.6095 ± 0.0073 mPa·s and 0.5945 ± 0.0072 mPa·s

Compound: ClC(Cl)C(Cl)(Cl)Cl
viscosity (298.15 K, 101 kPa): 2.26 ± 0.06 mPa·s
viscosity (303.15 K, 101 kPa): 1.971 ± 0.019 mPa·s

Compound: O=S(Cl)Cl
viscosity (298.15 K, 101 kPa): 0.6194 ± 0.016 mPa·s

viscosity ([1]; 313.15 K, 101 kPa, x2 = 0.1304): 4.405 ± 0.038 mPa·s
viscosity ([1]; 313.15 K, 101 kPa, x2 = 0.2625): 3.634 ± 0.031 mPa·s
viscosity ([1]; 313.15 K, 101 kPa, x2 = 0.4242): 2.894 ± 0.024 mPa·s
viscosity ([1]; 313.15 K, 101 kPa, x2 = 0.6104): 2.178 ± 0.018 mPa·s
viscosity ([1]; 313.15 K, 101 kPa, x2 = 0.7384): 1.687 ± 0.014 mPa·s
viscosity ([1]; 313.15 K, 101 kPa, x2 = 0.882): 1.121 ± 0.009 mPa·s
viscosity ([1]; 313.15 K, 101 kPa, x2 = 0.9089): 1.015 ± 0.009 mPa·s
viscosity ([1]; 313.15 K, 101 kPa, x2 = 0.9709): 0.775 ± 0.007 mPa·s
viscosity ([1]; 313.15 K, 101 kPa, x2 = 0.9746): 0.768 ± 0.007 mPa·s
Compound: C[n+]1cc([O-])on1 + O

Compound: FCC(F)(F)F + OCCO
viscosity ([1]; 293.15 K, 101.32 kPa, x2 = 0.948): 16.9 ± 1.2 mPa·s
viscosity ([1]; 293.15 K, 101.32 kPa, x2 = 0.964): 17.1 ± 1.2 mPa·s
viscosity ([1]; 293.15 K, 101.32 kPa, x2 = 0.974): 17.9 ± 1.2 mPa·s
viscosity ([1]; 313.15 K, 101.32 kPa, x2 = 0.949): 7.76 ± 0.53 mPa·s
viscosity ([1]; 313.15 K, 101.32 kPa, x2 = 0.965): 7.91 ± 0.54 mPa·s
viscosity ([1]; 313.15 K, 101.32 kPa, x2 = 0.975): 7.86 ± 0.54 mPa·s
